The source of these data is patent publication US20040102364A1, “Backbone cyclized radiolabelled somatostatin analogs” (priority 2001, published 2004).

The target of one experiment is T1, human cloned SST-R2 (Homo sapiens, UniProt P30874).
T1 construct: expressed in transfected cells; host or cells: CHO cells
The experiment is described as follows: Inhibition of 125I-Tyr11-SRIF binding to cloned human SST-R2 membranes (CHO cells). The method, then:
(§1) The SST analogs were tested for their potency in inhibition of the binding of ^125I-Tyr^11-SRIF (based on the method described by Raynor et. al., Molecular Pharmacology 43: 838, 1993) to membrane preparations expressing the transmembranal SST receptors (SST-R1, 2, 3, 4 or 5). The receptor preparations used for these tests were either from the cloned human receptors selectively and stably expressed in Chinese Hamster Ovary (CHO) cells or from cell lines naturally expressing the SST-Rs. […] The binding reactions were filtered, the filters were washed and the bound radioactivity was counted in β counter after addition of scintillation solution.

The target in the next experiment is SST-R2 (Homo sapiens, UniProt P30874). The experiment is described as follows: Inhibition of SRIF binding to SST-R2 (species not stated). The note with it: for inhibition at 10 pM: read-out: IC50 Screen SRIF Inhibited (%) 0.01 nM; for inhibition at 0.0001 µM: read-out: IC50 Screen SRIF Inhibited (%) 0.1 nM; for inhibition at 0.001 µM: read-out: IC50 Screen SRIF Inhibited (%) 1 nM. On the procedure:
as §1, with “solution. […]” for “solution.”

The mark [1] stands for this setting: human cloned receptor, read-out: Concentration (nM) of SST analogs to inhibit SRIF binding by 50%, SST-R 2.
The mark [2] stands for this setting: Quick Screen, 10 nM, SST-R2, read-out: Quick Screen SRIF Inhibited (%) 10 nM.
The mark [3] stands for this setting: Quick Screen, 100 nM, SST-R2, read-out: Quick Screen SRIF Inhibited (%) 100 nM.
[4] abbreviates: read-out: IC50 Screen SRIF Inhibited (%) 10 nM.
The mark [5] stands for this setting: read-out: IC50 Screen SRIF Inhibited (%) 100 nM.

Read-outs that look alike come from different tables or passages of the source.

T1 sequence (P30874 whole entry): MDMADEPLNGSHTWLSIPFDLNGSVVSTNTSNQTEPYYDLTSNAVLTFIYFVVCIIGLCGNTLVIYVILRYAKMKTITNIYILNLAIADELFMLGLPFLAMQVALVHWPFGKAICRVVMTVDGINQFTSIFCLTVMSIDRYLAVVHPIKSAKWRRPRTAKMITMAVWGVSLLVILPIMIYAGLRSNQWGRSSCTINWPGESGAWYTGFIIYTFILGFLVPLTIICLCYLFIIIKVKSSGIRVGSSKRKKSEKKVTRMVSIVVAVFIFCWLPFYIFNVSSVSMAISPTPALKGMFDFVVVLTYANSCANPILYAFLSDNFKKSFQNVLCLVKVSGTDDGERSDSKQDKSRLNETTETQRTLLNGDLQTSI
Sequence of SST-R2 (P30874 whole entry): as above

On to `C[C@@H](O)[C@@H]1NC(=O)[C@H](CCCCN)NC(=O)[C@@H](Cc2c[nH]c3ccccc23)NC(=O)[C@H](Cc2ccccc2)NC(=O)[C@@H]2CSSC[C@H](NC1=O)C(=O)N([C@@H](Cc1ccccc1)C(N)=O)CCCNC(=O)CCCN(C(=O)CNC(=O)CNC(=O)CNC(=O)CS)[C@@H](Cc1ccccc1)C(=O)N2` [PTR 3261, MAG3-PheC3-Cys-Phe-(D)Trp-Lys-Thr-Cys-PheN3-NH2], for which the IC50 was 119 nM at human cloned SST-R2 (human cloned SST-R2, 95% confidence interval given, read-out: IC50 calculated from the binding results of Table 3) and 100 nM at human cloned SST-R2 (setting [1]). Further, the “Total Bound (3-[125I]tyrosyl11)somatostatin-14 (cpm), Run 1” value at human cloned SST-R2 (peptide conc. 10 nM) is given as 8335 cpm; on human cloned SST-R2 (peptide conc. 100 nM), 5398 cpm; on human cloned SST-R2 (peptide conc. 1000 nM), 1941 cpm; at human cloned SST-R2 (peptide conc. 10000 nM), 917 cpm. The “Total Bound (3-[125I]tyrosyl11)somatostatin-14 (cpm), Run 2” value at human cloned SST-R2 (peptide conc. 10 nM) came to 8820 cpm; on human cloned SST-R2 (peptide conc. 100 nM), 5328 cpm; on human cloned SST-R2 (peptide conc. 1000 nM), 3169 cpm; at human cloned SST-R2 (peptide conc. 10000 nM), 1106 cpm. In addition, the “Total Bound (3-[125I]tyrosyl11)somatostatin-14 (cpm), Run 3” value was found to be 8098 cpm on human cloned SST-R2 (peptide conc. 10 nM), 5679 cpm on human cloned SST-R2 (peptide conc. 100 nM), 2024 cpm at human cloned SST-R2 (peptide conc. 1000 nM) and 2281 cpm on human cloned SST-R2 (peptide conc. 10000 nM).
On to `C[C@@H](O)[C@@H]1NC(=O)[C@H](CCCCN)NC(=O)[C@@H](Cc2c[nH]c3ccccc23)NC(=O)[C@H](Cc2c[nH]c3ccccc23)NC(=O)[C@H](Cc2ccccc2)NC(=O)[C@@H](NC(=O)CCCNC(=O)CN(CCN(CCN(CC(=O)O)CC(=O)O)CC(=O)O)CC(=O)O)CCNC(=O)CCCN(CC(N)=O)C(=O)[C@H](Cc2ccccc2)NC1=O` [PTR 3341, In-DTPA-GABA-Dab*-Phe-Trp-(D)Trp-Lys-Thr-Phe-GlyC3*-NH2], for which the inhibition at 0.01 µM on SST-R2 (setting [2]) came to 35%. Moreover, on SST-R2 (setting [3]), the inhibition at 0.1 µM amounted to 76%. Further, on SST-R2, the inhibition at 10 pM is -9.5%, the inhibition at 0.0001 µM was -4.8% and the inhibition at 0.001 µM was 12%. For the same compound, the inhibition at 0.01 µM on SST-R2 (setting [4]) is 44%. The inhibition at 0.1 µM at SST-R2 (setting [5]) was found to be 76%.
“In-DTPA-Gly-Phe(C3**)-Cys*-Phe-(D)Trp-Lys-Thr-Cys*-Phe(N3**)-NH2 [PTR 3347]”: the “SRIF Inhibited (%) 10 nM” value at SST-R2 (10 nM, SST-R2) is 38%. For the same compound, the “SRIF Inhibited (%) 100 nM” value at SST-R2 (100 nM, SST-R2) is given as 51%.
For the compound “In-DTPA-b-Ala-Phe(C3**)-Cys*-Phe-(D)Trp-Lys-Thr-Cys*-Phe(N3**)-NH2 [PTR 3349]”, the “SRIF Inhibited (%) 10 nM” value on SST-R2 (10 nM, SST-R2) was found to be 20%. Besides, the “SRIF Inhibited (%) 100 nM” value at SST-R2 (100 nM, SST-R2) turned out to be 54%.
Consider “In-DTPA-3-aminomethylbenzoic acid-Phe(C3**)-Cys*-Phe-(D)Trp-Lys-Thr-Cys*-Phe(N3**)-NH2 [PTR 3355]”, for which, at SST-R2 (10 nM, SST-R2), the “SRIF Inhibited (%) 10 nM” value worked out at 8%. Moreover, the “SRIF Inhibited (%) 100 nM” value on SST-R2 (100 nM, SST-R2) amounted to 34%.
Regarding “ReO-MA-Dpr(Gly)-Dab*-Phe-Trp-(D)Trp-Lys-Thr-Phe-GlyC3*-NH2 [PTR 3395]”, the IC50 on human cloned SST-R2 (setting [1]) is 1.14 nM.
In the case of “In-DTPA-GABA-Phe(C3**)-Cys*-Phe-(D)Trp-Lys-Thr-Cys*-Phe(N3 **)-NH2 [PTR 3351]”, the “SRIF Inhibited (%) 10 nM” value on SST-R2 (10 nM, SST-R2) is on record as 5%. Also, the “SRIF Inhibited (%) 100 nM” value at SST-R2 (100 nM, SST-R2) is listed as 53%.
With `C[C@@H](O)[C@@H]1NC(=O)[C@H](CCCCN)NC(=O)[C@@H](Cc2c[nH]c3ccccc23)NC(=O)[C@H](Cc2c[nH]c3ccccc23)NC(=O)[C@H](Cc2ccccc2)NC(=O)[C@@H](NC(=O)CNC(=O)CN(CCN(CCN(CC(=O)O)CC(=O)O)CC(=O)O)CC(=O)O)CCNC(=O)CCCN(CC(N)=O)C(=O)[C@H](Cc2ccccc2)NC1=O` [PTR 3319, In-DTPA-Gly-Dab*-Phe-Trp-(D)Trp-Lys-Thr-Phe-GlyC3*-NH2], at SST-R2 (setting [2]), the inhibition at 0.01 µM is 65%. Further, at SST-R2 (setting [3]), the inhibition at 0.1 µM was 83%. For the same compound, at SST-R2, the inhibition at 10 pM is -8.5%, the inhibition at 0.0001 µM was -0.67% and the inhibition at 0.001 µM amounted to 30%. Moreover, the inhibition at 0.01 µM at SST-R2 (setting [4]) worked out at 57%. In addition, the inhibition at 0.1 µM at SST-R2 (setting [5]) was 86%.
In the case of “In-DTPA-5-aminopentanoic acid-Phe(C3**)-Cys*-Phe-(D)Trp-Lys-Thr-Cys*-Phe(N3**)-NH2 [PTR 3353]”, the “SRIF Inhibited (%) 10 nM” value on SST-R2 (10 nM, SST-R2) was 14%. Also, at SST-R2 (100 nM, SST-R2), the “SRIF Inhibited (%) 100 nM” value was found to be 59%.
`C[C@@H](O)[C@@H]1NC(=O)[C@H](CCCCN)NC(=O)[C@@H](Cc2c[nH]c3ccccc23)NC(=O)[C@H](Cc2c[nH]c3ccccc23)NC(=O)[C@H](Cc2ccccc2)NC(=O)[C@@H](NC(=O)CN(CCN(CCN(CC(=O)O)CC(=O)O)CC(=O)O)CC(=O)O)CCNC(=O)CCCN(CC(N)=O)C(=O)[C@H](Cc2ccccc2)NC1=O` [PTR 3337, In-DTPA-Dab*-Phe-Trp-(D)Trp-Lys-Thr-Phe-GlyC3*-NH2]: the inhibition at 0.01 µM at SST-R2 (setting [2]) amounted to 53%. At SST-R2 (setting [3]), the inhibition at 0.1 µM stood at 87%. Besides, at SST-R2, the inhibition at 10 pM is -8.5%, the inhibition at 0.0001 µM worked out at 10% and the inhibition at 0.001 µM was 37%. Further, the inhibition at 0.01 µM on SST-R2 (setting [4]) came out at 69%. On SST-R2 (setting [5]), the inhibition at 0.1 µM is 89%.
For the compound “In-DTPA-5-aminopentanoic acid-Dab*-Phe-Trp-(D)Trp-Lys-Thr-Phe-GlyC3*-NH2 [PTR 3343]”, the “IC50 Screen SRIF Inhibited (%) 0.01 nM” value at SST-R2 (IC50 Screen, 0.01 nM, SST-R2) was −16%. The “IC50 Screen SRIF Inhibited (%) 0.1 nM” value at SST-R2 (IC50 Screen, 0.1 nM, SST-R2) is reported as −3.8%. In addition, on SST-R2 (IC50 Screen, 1 nM, SST-R2), the “IC50 Screen SRIF Inhibited (%) 1 nM” value was found to be 10%. At SST-R2 (IC50 Screen, 10 nM, SST-R2), the “IC50 Screen SRIF Inhibited (%) 10 nM” value came out at 44%. Besides, on SST-R2 (IC50 Screen, 100 nM, SST-R2), the “IC50 Screen SRIF Inhibited (%) 100 nM” value is on record as 76%. For the same compound, the “Quick Screen SRIF Inhibited (%) 10 nM” value at SST-R2 (Quick Screen, 10 nM, SST-R2) is given as 37%. Further, the “Quick Screen SRIF Inhibited (%) 100 nM” value on SST-R2 (Quick Screen, 100 nM, SST-R2) is reported as 79%.
With `C[C@@H](O)[C@@H]1NC(=O)[C@H](CCCCN)NC(=O)[C@@H](Cc2c[nH]c3ccccc23)NC(=O)[C@H](Cc2c[nH]c3ccccc23)NC(=O)[C@H](Cc2ccccc2)NC(=O)[C@@H](NC(=O)CCNC(=O)CN(CCN(CCN(CC(=O)O)CC(=O)O)CC(=O)O)CC(=O)O)CCNC(=O)CCCN(CC(N)=O)C(=O)[C@H](Cc2ccccc2)NC1=O` [PTR 3339, In-DTPA-b-Ala-Dab*-Phe-Trp-(D)Trp-Lys-Thr-Phe-GlyC3*-NH2], the inhibition at 0.01 µM on SST-R2 (setting [2]) was 27%; on SST-R2 (setting [4]) it was 52%. In addition, the inhibition at 0.1 µM on SST-R2 (setting [3]) stood at 69%; at SST-R2 (setting [5]), 78%. The inhibition at 10 pM at SST-R2 is -11%. In addition, the inhibition at 0.0001 µM at SST-R2 is 3%. In addition, the inhibition at 0.001 µM at SST-R2 came to 17%.
